From PubChem BioAssay (NCI)
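Growth conditions: 96-well plates. Treatment: test compound, 48 hours, 5 concentrations. Analysis: linear interpolation between bracketing concentrations; unreached endpoints set to highest concentration. GI50 marks 50% less growth. TGI marks complete inhibition of growth.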

Experiments:
Test in all cases: NCI-60 cell line screen, 48 h
HCC-2998 colon = system: HCC-2998 colon
SR leukemia = system: SR leukemia
M14 melanoma = system: M14 melanoma
MCF7 breast = system: MCF7 breast
DU-145 prostate = system: DU-145 prostate
MDA-MB-435 = system: MDA-MB-435
SW-620 colon = system: SW-620 colon
UACC-257 melanoma = system: UACC-257 melanoma
IGROV1 ovarian = system: IGROV1 ovarian
HS 578T breast = system: HS 578T breast
HL-60(TB) leukemia = system: HL-60(TB) leukemia
MOLT-4 leukemia = system: MOLT-4 leukemia
786-0 renal = system: 786-0 renal
K-562 leukemia = system: K-562 leukemia
BT-549 breast = system: BT-549 breast
HCT-15 colon = system: HCT-15 colon
SF-539 CNS = system: SF-539 CNS
NCI-H226 lung = system: NCI-H226 lung
UACC-62 melanoma = system: UACC-62 melanoma
HT29 colon = system: HT29 colon
SF-295 CNS = system: SF-295 CNS
UO-31 renal = system: UO-31 renal
SK-MEL-28 melanoma = system: SK-MEL-28 melanoma
U251 CNS = system: U251 CNS
NCI-H522 lung = system: NCI-H522 lung
NCI-H460 lung = system: NCI-H460 lung
PC-3 prostate = system: PC-3 prostate
SNB-75 CNS = system: SNB-75 CNS
MALME-3M melanoma = system: MALME-3M melanoma
SK-MEL-5 melanoma = system: SK-MEL-5 melanoma
HOP-62 NSCLC = system: HOP-62 NSCLC
MDA-MB-231 breast = system: MDA-MB-231 breast
HOP-92 NSCLC = system: HOP-92 NSCLC
A549 NSCLC = system: A549 NSCLC
SK-OV-3 ovarian = system: SK-OV-3 ovarian
KM12 colon = system: KM12 colon
A498 renal = system: A498 renal
LOX IMVI melanoma = system: LOX IMVI melanoma
COLO 205 colon = system: COLO 205 colon
CAKI-1 renal = system: CAKI-1 renal
ACHN renal = system: ACHN renal
RXF 393 renal = system: RXF 393 renal
OVCAR-4 ovarian = system: OVCAR-4 ovarian
OVCAR-3 ovarian = system: OVCAR-3 ovarian
HCT-116 colon = system: HCT-116 colon
EKVX NSCLC = system: EKVX NSCLC
RPMI-8226 leukemia = system: RPMI-8226 leukemia
SF-268 CNS = system: SF-268 CNS
SN12C renal = system: SN12C renal
CCRF-CEM leukemia = system: CCRF-CEM leukemia
TK-10 renal = system: TK-10 renal
NCI-H23 lung = system: NCI-H23 lung
SNB-19 CNS = system: SNB-19 CNS
OVCAR-5 ovarian = system: OVCAR-5 ovarian

## Cc1nc2cc(Nc3nc(N4CCCCC4)nc(N4CCOCC4)n3)ccc2n1Cc1ccccc1
HCC-2998 colon
  GI50: 3980 nM
  TGI: > 100000 nM
SR leukemia
  GI50: 3570 nM
  TGI: > 100000 nM
M14 melanoma
  GI50: 3920 nM
  TGI: > 100000 nM
MCF7 breast
  GI50: 3280 nM
  TGI: > 100000 nM
DU-145 prostate
  GI50: 3480 nM
  TGI: > 100000 nM
MDA-MB-435
  GI50: 3410 nM
  TGI: > 100000 nM
SW-620 colon
  GI50: 3190 nM
  TGI: > 100000 nM
UACC-257 melanoma
  GI50: 3150 nM
  TGI: > 100000 nM
IGROV1 ovarian
  GI50: 3760 nM
  TGI: > 100000 nM
HS 578T breast
  GI50: 2710 nM
  TGI: > 100000 nM
HL-60(TB) leukemia
  GI50: 2160 nM
  TGI: 5490 nM
MOLT-4 leukemia
  GI50: 3600 nM
  TGI: > 100000 nM
786-0 renal
  GI50: 1780 nM
  TGI: 3230 nM
K-562 leukemia
  GI50: 6710 nM
  TGI: > 100000 nM
BT-549 breast
  GI50: 2510 nM
  TGI: 7100 nM
HCT-15 colon
  GI50: 2840 nM
  TGI: > 100000 nM
SF-539 CNS
  GI50: > 100000 nM
  TGI: > 100000 nM
NCI-H226 lung
  GI50: 4060 nM
  TGI: > 100000 nM

## C[n+]1c2ccccc2c(Nc2ccc(N3CCCCC3)cc2)c2[nH]c3ccccc3c21
HCC-2998 colon
  GI50: 185 nM
  TGI: 619 nM
SR leukemia
  GI50: 3790 nM
  TGI: > 100000 nM
M14 melanoma
  GI50: 346 nM
  TGI: 1470 nM
UACC-62 melanoma
  GI50: 194 nM
  TGI: 861 nM
HT29 colon
  GI50: 191 nM
  TGI: 656 nM
SF-295 CNS
  GI50: 379 nM
  TGI: 1550 nM
UO-31 renal
  GI50: 144 nM
  TGI: 833 nM
SK-MEL-28 melanoma
  GI50: 418 nM
  TGI: 1360 nM
U251 CNS
  GI50: 205 nM
  TGI: 670 nM
MCF7 breast
  GI50: 152 nM
  TGI: 524 nM
DU-145 prostate
  GI50: 272 nM
  TGI: 802 nM
NCI-H522 lung
  TGI: 90.8 nM
NCI-H460 lung
  GI50: 152 nM
  TGI: 480 nM
MDA-MB-435
  GI50: 442 nM
  TGI: 1650 nM
PC-3 prostate
  GI50: 154 nM
  TGI: 416 nM
SNB-75 CNS
  GI50: 522 nM
  TGI: 1910 nM
MALME-3M melanoma
  GI50: 340 nM
  TGI: 1530 nM
SK-MEL-5 melanoma
  GI50: 333 nM
  TGI: 1460 nM
HOP-62 NSCLC
  GI50: 456 nM
  TGI: 1810 nM
SW-620 colon
  GI50: 184 nM
  TGI: 726 nM
MDA-MB-231 breast
  GI50: 327 nM
  TGI: 1700 nM
HOP-92 NSCLC
  GI50: 264 nM
  TGI: 1200 nM
A549 NSCLC
  GI50: 166 nM
  TGI: 549 nM
SK-OV-3 ovarian
  GI50: 515 nM
  TGI: 1850 nM
KM12 colon
  GI50: 281 nM
  TGI: 958 nM
UACC-257 melanoma
  GI50: 417 nM
  TGI: 1070 nM
A498 renal
  GI50: 234 nM
  TGI: 843 nM
IGROV1 ovarian
  GI50: 229 nM
  TGI: 1180 nM
LOX IMVI melanoma
  GI50: 144 nM
  TGI: 340 nM
COLO 205 colon
  GI50: 140 nM
  TGI: 344 nM
CAKI-1 renal
  GI50: 114 nM
  TGI: 1060 nM
ACHN renal
  GI50: 223 nM
  TGI: 1010 nM
HS 578T breast
  GI50: 231 nM
  TGI: 705 nM
HL-60(TB) leukemia
  GI50: 28.2 nM
  TGI: 192 nM
RXF 393 renal
  GI50: 174 nM
  TGI: 347 nM
MOLT-4 leukemia
  GI50: 53.6 nM
  TGI: 1180 nM
786-0 renal
  GI50: 456 nM
  TGI: 1690 nM
K-562 leukemia
  GI50: 155 nM
  TGI: 353 nM
OVCAR-4 ovarian
  GI50: 326 nM
  TGI: 1230 nM
OVCAR-3 ovarian
  GI50: 185 nM
  TGI: 368 nM
HCT-116 colon
  GI50: 132 nM
  TGI: 361 nM
EKVX NSCLC
  GI50: 459 nM
  TGI: 1930 nM
RPMI-8226 leukemia
  GI50: 81 nM
  TGI: 262 nM
SF-268 CNS
  GI50: 460 nM
  TGI: 1620 nM
SN12C renal
  GI50: 212 nM
  TGI: 1240 nM
BT-549 breast
  GI50: 1160 nM
  TGI: 2450 nM
HCT-15 colon
  GI50: 154 nM
  TGI: 324 nM
SF-539 CNS
  GI50: 617 nM
  TGI: 1900 nM
CCRF-CEM leukemia
  GI50: 83.2 nM
  TGI: 312 nM
TK-10 renal
  GI50: 1230 nM
  TGI: 2600 nM
NCI-H226 lung
  GI50: 324 nM
  TGI: 1800 nM
NCI-H23 lung
  GI50: 349 nM
  TGI: 1680 nM
SNB-19 CNS
  GI50: 427 nM
  TGI: 1760 nM
OVCAR-5 ovarian
  GI50: 658 nM
  TGI: 2090 nM
